Laboratory results from patent publication US11672792B2, “Topical formulations comprising montelukast and combinations with mussel adhesive proteins” (ENLITISA (SHANGHAI) PHARMACEUTICAL CO., LTD, priority 2017, dated 2023).

Tests used:
[1] = test system: carrageenan-induced acute inflammation in subcutaneous air pouch; assay: Air Pouch Model I (Example 1); format: in vivo, C57BL/6 mice; set-up: Activity score / Edema Score / Sum (of histology scores) / Fibroplastic proliferation score / Inflammation score: scale not given here; details: MAP 1.5 mg, Mon 200 μg
Method: Healthy adult male C57BL/6 mice weighing between 20 and 30 g were supplied by Changzhou Cvens Experimental Animal Co. Ltd (Changzhou, Jiangsu Province, China). Prior to any experiments being conducted, mice were housed under standardized conditions (at a constant temperature or 22 t 2° C., with alternating 12 hour periods of light and darkness), and were fed on a standard mouse diet with water, for about a week.
General anesthesia was induced using intraperitoneal 3% chloral hydrate (Sinopharm Chemical Reagent Co., Ltd., Shanghai, China); 1 mL/10 g of body weight). The hair of the entire dorsum was shaved and depilated 1 day before sterile air injection.
Air pouches were produced by subcutaneous injection of sterile air (5 mL) into the intrascapular area of the mice. After three days, another injection of air (3 mL) was performed to maintain the pouches. In order to induce acute inflammation, three days after this final injection, animals received an injection of sterile carrageenan solution (CP Kelco, Taixing, Jiangsu Province, China; 1%, 0.5 mL; produced by adding 0.1 g of carrageenan powder into a beaker containing 10 mL of 0.9% saline solution and stirring). Mice were pre-treated with test samples or vehicle 1 hour before and 23 hours after the carrageenan injection into the subcutaneous air pouch. Animals were sacrificed 24 hours after the carrageenan injection.
Skin biopsies were taken from the air pouches. A part of the biopsy was fixed in formalin (produced by adding ultra pure water to 50 mL of a 40% formaldehyde solution (Nanchang Rain Dew Experimental Equipment Co., Ltd., Nanchang, […] Provence, China) up to a total volume of 500 mL) and analyzed by histological embedding in paraffin wax, sectioning and staining.
The cavity was washed with 4 mL of sterile phosphate buffer solution (pH 7.4; prepared by dissolving 4 g of NaCl, 0.1 g of KCl, 1.749 g of Na2HPO4.12H2O and 0.1 g of KH2PO4 in ultrapure water, adjusting the pH to 7.4 with HCl and diluting with water to a total volume of 500 mL).
Exudates were collected and volumes were quantified. The total number of cells was determined with a haematocytometer (ADVIA 2120 Hematology System, Siemens Healthineers).
In Table 1, MAP is a Mefp-1 solution, which is was prepared as follows. Blue mussels were harvested in the coastal area of Shandong Province, China. Mussel feet were collected, cut into small pieces and homogenized in an extraction buffer comprising 5% acetic acid in 4 mol/L of aqueous urea. The crude extracts were collected after centrifuging and then purified by liquid chromatography. […] The solutions that were employed below were prepared by adding saline solution to this semi-finished product to obtain a concentration as described in Table 1.

[2] = test system: carrageenan-induced acute inflammation in subcutaneous air pouch; assay: Air Pouch Model II (Example 2); format: in vivo, mice; set-up: Fibroplastic proliferation score / Inflammation score / Activity score / Edema Score / Sum (of histology scores): scale not given here; details: Dopamine 2 mg, MAP 250 μg, Mon 100 μg
Method: In Table 6, “Dex” is an abbreviation for dexamethasone and “Dopamine” is a 4 mg/mL aqueous solution of dopamine hydrochloride (Shanghai Aladdin Bio-Chem Technology Co., Ltd., Shanghai, China).
The histological specimens were analysed and an inflammation score, an activity score and a fibroplastic proliferation score were estimated as in Example 1 above and are tabulated in Table 9 below.

[3] = test system: carrageenan-induced acute inflammation in subcutaneous air pouch; assay: Air Pouch Model: Topical Administration Versus Oral Administration (Example 4); details: 200 μg/mouse, Mon-O intragastric
[4] = test system: carrageenan-induced acute inflammation in subcutaneous air pouch; assay: Air Pouch Model: Combination of Montelukast (Example 5); format: in vivo, mice; details: MAP 1.5 mg, Mon 200 μg
[5] = doses/mouse: dexamethasone 200 μg
[6] = doses/mouse: dexamethasone 200 μg, 24 h after carrageenan
[7] = pouch wall histology, dexamethasone 200 μg

C[C@@H]1C[C@H]2[C@@H]3CCC4=CC(=O)C=C[C@]4(C)[C@@]3(F)[C@@H](O)C[C@]2(C)[C@@]1(O)C(=O)CO [Dexamethasone, dexamethasone]
IFN-γ in exudate (ELISA) ([1]; dexamethasone 200 μg): 2879 ± 1267
IL-6 in exudate (ELISA) ([1]; dexamethasone 200 μg): 3649 ± 1764
IL-10 in exudate (ELISA) ([1]; dexamethasone 200 μg): 52.33 ± 11.60
TNF-α in exudate (ELISA) ([1]; dexamethasone 200 μg): 71.31 ± 111.19
Leukocyte count in exudate [1, 5]: 2.48e+08 mL⁻¹
Lymphocyte count in exudate [1, 5]: 2.08e+08 mL⁻¹
Monocyte count in exudate [1, 5]: 5e+06 mL⁻¹
Neutrophil count in exudate [1, 5]: 2.2e+07 mL⁻¹
Exudate volume [1, 6]: 3.60 ± 0.14 mL
Pouch Wall Weight [1, 6]: 0.72 ± 0.09 g
Activity score [1, 7]: 0.83
Edema Score [1, 7]: 1.67
Fibroplastic proliferation score [1, 7]: 0.00
Inflammation score [1, 7]: 1.50
Sum (of histology scores) [1, 7]: 4.00
Activity score ([2]; Dex 400 μg): 0.33
Edema Score ([2]; Dex 400 μg): 0.83
Fibroplastic proliferation score ([2]; Dex 400 μg): 0.00
IFN-γ in exudate (ELISA) ([2]; Dex 400 μg): 238.91 ± 272.27
IL-6 in exudate (ELISA) ([2]; Dex 400 μg): 3697.30 ± 5112.52
Inflammation score ([2]; Dex 400 μg): 0.83
Leukocyte count in exudate ([2]; Dex 400 μg): 880000 mL⁻¹
Lymphocyte count in exudate ([2]; Dex 400 μg): 30000 mL⁻¹
Monocyte count in exudate ([2]; Dex 400 μg): 670000 mL⁻¹
Neutrophil count in exudate ([2]; Dex 400 μg): 130000 mL⁻¹
Sum (of histology scores) ([2]; Dex 400 μg): 2.00
Exudate volume ([2]; doses/mouse: Dex 400 μg): 2.87 ± 0.06 mL
Pouch Wall Weight ([2]; doses/mouse: Dex 400 μg): 0.45 ± 0.01 g
Exudate volume ([3]; others injected into pouch): 3.3 ± 0.15 mL
Pouch Wall Weight ([3]; others injected into pouch): 0.63 ± 0.09 g
Activity score ([3]; others into pouch): 0.67
Edema Score ([3]; others into pouch): 1.67
IFN-γ in exudate (ELISA) ([3]; others into pouch): 388.83 ± 130.02
IL-6 in exudate (ELISA) ([3]; others into pouch): 428.05 ± 267.27
Inflammation score ([3]; others into pouch): 1.83
Leukocyte count in exudate ([3]; others into pouch): 3.49e+06 mL⁻¹
Sum (of histology scores) ([3]; others into pouch): 4.17
TNF-α in exudate (ELISA) ([3]; others into pouch): 65.08 ± 7.70
Activity score ([4]; dexamethasone 200 μg): 0.83
Edema Score ([4]; dexamethasone 200 μg): 1.67
Fibroblast proliferation score ([4]; dexamethasone 200 μg): 0.00
IFN-γ in exudate (ELISA) ([4]; dexamethasone 200 μg): 2879 ± 1267
IL-6 in exudate (ELISA) ([4]; dexamethasone 200 μg): 3649 ± 1764
IL-10 in exudate (ELISA) ([4]; dexamethasone 200 μg): 52.33 ± 11.60
Inflammation score ([4]; dexamethasone 200 μg): 1.50
Leukocyte count in exudate ([4]; dexamethasone 200 μg): 2.48e+06 mL⁻¹
Lymphocyte count in exudate ([4]; dexamethasone 200 μg): 2.08e+06 mL⁻¹
Monocyte count in exudate ([4]; dexamethasone 200 μg): 50000 mL⁻¹
Neutrophil count in exudate ([4]; dexamethasone 200 μg): 220000 mL⁻¹
Sum (of histology scores) ([4]; dexamethasone 200 μg): 4.00
TNF-α in exudate (ELISA) ([4]; dexamethasone 200 μg): 71.31 ± 111.19
Exudate volume [4, 5]: 3.60 ± 0.14 mL
Pouch Wall Weight [4, 5]: 0.72 ± 0.09 g
